Data taken from patent US20240110004A1 (Northwestern University, priority 2022, published 2024).
Where no end group is shown, it is not given here.

Assays:
HdhQ111 cells [1] = test: Cell viability (cell rescue) of serum-starved HdhQ111 cells; type: cell-based, mouse; settings: 3 μM with respect to peptide, once a day for 3 days; compared to the vehicle control
Protocol: FIG. 3A: Cell viability of HV3-TAT peptide and PLPs. Compounds treated to the HdhQ111 cells once a day for 3 days. Concentration was 3 μM with respect to peptide. FIG. 3B: VCP binding assay results for HV3-TAT, P1, P2, and P4.
Cell Viability Methods: In vitro assays were carried out to examine the bioactivity of the PLPs, P1, P2, P3, and P4 and to compare against the known, active HV3-TAT. […] HdhQ111 cells were immortalized from knock-in mice carrying 111 CAG repeats in the mouse Htt gene.
(§1) To verify that the PLPs retain bioactivity after being exposed to enzymes or serum treatments, the viability of HD mouse mutant striatal HdhQ111 cells was assessed following treatment with HV3-TAT and P1. […] Cells were maintained at 33° C. and 5% CO2 with a relative humidity of 95%. HdQ111 cells were plated in 96-well plates at a density of 5000 per well and then left to attach for 24 h. Cells were treated with HV3-TAT or PLPs at 3 μM with respect to peptide once a day, for 3 days. The medium was replaced every day. After 72 h, cells were washed 3 times with PBS buffer. At this point, 20 μL of CTB reagent in 80 uL of medium was added, and the cells incubated for 3 hours at 37° C. Fluorescence was measured at 590 nm with excitation at 560 nm using a Perkin Elmer EnSpire plate reader. The average background fluorescence of CTB in media without cells was subtracted from the average fluorescence readings of the experimental wells. Viability was calculated as the average background-subtracted signal in a well compared to that of a negative control well (treatment with vehicle or media). Three replicates were performed for each independent sample. 10% DMSO was used as a positive control and untreated cells in complete medium as a negative control. Viability is reported as a percentage of untreated cells.

[2] = biological target: T1, interaction between VCP and mtHtt (Homo sapiens, UniProt P55072); test: VCP binding assay: association of VCP to mtHtt by immunoprecipitation and western blot in HEK293 cells; type: cell-based; settings: HEK293 cells co-transfected with GFP-VCP and myc-Q73 FL, 3 μM, three doses
T1 construct: GFP; expressed in transfected cells; host or cells: HEK293
T1 sequence (P55072 whole entry): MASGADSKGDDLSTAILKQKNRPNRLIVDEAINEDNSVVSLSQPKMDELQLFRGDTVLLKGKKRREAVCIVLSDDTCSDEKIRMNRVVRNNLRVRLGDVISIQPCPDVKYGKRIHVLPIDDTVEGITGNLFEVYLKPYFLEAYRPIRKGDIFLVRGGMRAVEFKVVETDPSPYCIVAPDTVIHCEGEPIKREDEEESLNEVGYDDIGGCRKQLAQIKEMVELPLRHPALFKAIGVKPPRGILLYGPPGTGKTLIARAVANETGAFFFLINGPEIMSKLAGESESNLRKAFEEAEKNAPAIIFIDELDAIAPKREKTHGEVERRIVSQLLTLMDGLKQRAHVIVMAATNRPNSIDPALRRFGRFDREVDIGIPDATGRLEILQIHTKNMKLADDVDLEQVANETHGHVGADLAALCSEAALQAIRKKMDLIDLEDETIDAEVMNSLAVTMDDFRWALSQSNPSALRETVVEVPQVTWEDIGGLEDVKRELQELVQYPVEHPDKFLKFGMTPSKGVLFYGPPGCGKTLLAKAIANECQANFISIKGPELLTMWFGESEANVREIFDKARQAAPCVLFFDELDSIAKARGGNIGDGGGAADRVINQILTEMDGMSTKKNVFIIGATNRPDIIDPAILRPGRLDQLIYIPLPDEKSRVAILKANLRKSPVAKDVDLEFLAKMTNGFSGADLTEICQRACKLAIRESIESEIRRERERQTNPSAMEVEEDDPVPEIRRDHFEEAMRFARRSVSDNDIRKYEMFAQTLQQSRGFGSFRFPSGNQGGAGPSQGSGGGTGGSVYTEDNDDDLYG
Protocol: Therefore, target engagement protein binding assays were conducted. HEK293 cells were cultured and plated one day before treatment. Cells were pre-treated with HV3-TAT or PLPs at 3 μM for 2 h. Cells were then co-transfected with GFP-VCP and myc-Q73 FL plasmids. Cells were treated with a second dose of peptide or PLPs 6 hours after transfection, and a final third dose of peptide or PLPs treatment was administered 24 hours after transfection. Cell total lysate was harvested 48 hours after transfection, and to confirm binding of PLPs to VCP in cells, association of VCP to mtHtt was quantified by immunoprecipitation (IP) followed by western blot upon treatment of HV3-TAT peptide and PLPs.

HdhQ111 cells [3] = test: Cell viability in HdhQ111 cells after enzyme or serum pretreatment of the compounds; type: cell-based, mouse; settings: relative to compound without pretreatment, 3 μM with respect to peptide
Protocol: FIG. 10A-10B: Cell viability in HdhQ111 mouse striatal cells after enzyme pretreatment.
Each degradation experiment was repeated three times.
as §1, with “Viability is reported as a percentage of untreated cells.” left out

C57BL/6J mice = test: Toxicity in WT C57BL/6J mice (CBC, serum chemistry, H&E pathology); type: in vivo, mouse; settings: 3 mg/kg with respect to peptide, osmotic subcutaneous pump, 8 weeks, vs saline
Source text: FIG. 21: Optical micrographs for toxicity pathology analysis. H&E stained tissue; scale bar: 200 μm.
FIG. 22: Quantification of in vivo results from toxicity pathology analysis as depicted in FIG. 21. Left: pathology severity scoring of H&E stained tissue; Middle: red blood cell count; Right: white blood cell count.
FIG. 23A-23D: Quantification of in vivo results from toxicity pathology analysis as depicted in FIG. 21. FIG. 23A: represents hemoglobin count; FIG. 23B: total protein count; FIG. 23C: ALT (alanine transaminase) count; FIG. 23D: total bilirubin count.
Methods: To assess the toxicity of P1 at the administrable dose in healthy animals, as compared to HV3-TAT at its operating dose, and saline for the negative control, male C57BL/6J mice were assigned to 3 groups (n=3-4 per group) and administered via osmotic subcutaneous pump (Alzet) either HV3-TAT at 3 mg/kg, P1 at 3 mg/kg, all with respect to peptide concentration, or saline as a negative control for 8 weeks. Animals were checked weekly after drug administration for mortality. At sacrifice, blood was collected from each animal via cardiac puncture using a 25-gauge needle while under isoflurane, and then animals were sacrificed and major organs (brain, lung, heart, liver, spleen, spinal cord, and kidneys) collected, weighed, and stored in 10% buffered formalin followed by paraffin embedment.

R6/2 mice = test: mtHtt impact: mitochondrial VCP level and mtHtt aggregation in striatum; type: in vivo, mouse; settings: for VCP level on mitochondria of striatum: ATPB loading control; for mtHtt aggregation in striatum: compared to saline treated
Source text: FIG. 34A-34B: Quantification of mitochondrial studies. FIG. 34A depicts quantification of immunoblot results for VCP levels on mitochondrial fractions from striatal extracts of WT and R6/2 mice after treatment (immunoblot not shown). ATPB refers to ATP-ase β subunit. p-value for: WT veh as compared to R62 veh: <0.0001; WT+P1 as compared to R62 veh: <0.0001; R62 veh as compared to R62+HV3-TAT: 0.0001; R62 veh as compared to R62+P1: 0.0184; R62+P1 as compared to R62+HV3-TAT: 0.2663. FIG. 34B depicts quantification of mtHtt aggregation after EM48 staining (stains not shown). p-value for: R62 veh as compared to R62+HV3-TAT: 0.0491; R62 veh as compared to R62+P1: 0.0189; R62+P1 as compared to R62+HV3-TAT: 0.8765.
In vivo Efficacy Methods—mtHtt Impact: As the pathophysiological hallmark of HD, the formation of mtHtt aggregates can be observed in striatum of HD mouse models, like R6/2 mice. […] HV3 peptide blocks mtHtt-VCP binding, and inhibits VCP mitochondrial accumulation, which reduce behavioral and neuropathological phenotypes of HD. Mitochondrial level of VCP and mtHtt aggregation were examined to test whether PLP recapitulates the mechanism of HV3 peptide. Mitochondrial fractions of striatum were isolated from mice in each treatment group. Protein levels of VCP on mitochondria were analyzed by western blotting, using ATPB as a loading control for mitochondria. mtHtt aggregation was visualized by immunohistochemical staining by anti-mtHtt antibody.

pepsin = pepsin (Sus scrofa, UniProt P00791)
Sequence of pepsin (P00791 60-385): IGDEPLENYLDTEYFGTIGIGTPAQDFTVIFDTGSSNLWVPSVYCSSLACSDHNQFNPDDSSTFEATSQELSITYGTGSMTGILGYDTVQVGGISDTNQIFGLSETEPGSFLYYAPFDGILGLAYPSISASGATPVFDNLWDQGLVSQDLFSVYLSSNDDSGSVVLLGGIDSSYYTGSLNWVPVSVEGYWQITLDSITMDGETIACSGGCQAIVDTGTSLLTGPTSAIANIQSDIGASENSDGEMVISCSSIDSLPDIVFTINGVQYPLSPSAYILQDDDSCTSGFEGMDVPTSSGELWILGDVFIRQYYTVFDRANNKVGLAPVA
Protocol: Stability of PLPs Methods I: For enzyme-induced cleavage experiments, the molar concentration of enzymes was set to 0.1 μM. The concentration of side-chain peptides (having sequence identity of SEQ ID: 1) varied in the range of 50-200 μM. For each enzyme, temperature was set for optimal enzyme activity. In a typical experiment, P1 or HV3-TAT was dissolved in DPBS (pH 7.4) or hydrochloric acid solution (pH 2), to obtain a stock polymer/peptide solution with a peptide concentration of 200 μM. Next, 5 μL of enzyme stock solution (10 μM) was added into 500 μL of the polymer/peptide solution which was subsequently stirred in a preheated oil bath at 37° C. In this case, the molar ratio of peptide substrate to enzymes was 2000:1. During the cleavage, aliquots were taken for HPLC analysis at predetermined time points. Each degradation experiment was repeated three times. Enzyme pretreated P1 was also run on SDS-PAGE and visualized with Coomassie Blue staining.

| Substance | cell viability (HdhQ111 cells [1]) | association of VCP to mtHtt (VCP binding) [2] | cell viability after enzyme or serum pretreatment of the compound (HdhQ111 cells [3]) | complete blood count (CBC) panel and serum chemical analysis (C57BL/6J mice) | pathology of H&E stained tissues (C57BL/6J mice) | VCP level on mitochondria of striatum (R6/2 mice) | mtHtt aggregation in striatum (R6/2 mice) | cleavage by pepsin (pepsin) | percent cleavage by pepsin (pepsin; isolated enzyme pepsin, 50 min, 200 μM) [%] |
| --- | --- | --- | --- | --- | --- | --- | --- | --- | --- |
| P1: PLP homopolymer having peptide side chains of SEQ ID: 1 (HVLVMSATRR), made by ROMP of norbornene peptide monomer M1 (also: side chains of polynorbornene homopolymer (PLP, ROMP of norbornene peptide monomer)) | higher significance than P3 | exhibited evidence for binding | did not have any significant change in cell viability | no significant difference between groups | No pathological differences | inhibited mitochondrial VCP accumulation to a lesser extent | inhibited mtHtt aggregation | no cleavage observed |  |
| peptide sequence HVLVMCAT (HV3) coupled to the cell penetrating, HIV-derived TAT peptide [HV3-TAT, reference compound] | significant increases in cell viability | exhibited evidence for binding | significant decrease in cell viability | no significant difference between groups | No pathological differences | blocked aberrant VCP mitochondrial translocation | inhibited mtHtt aggregation |  | 100 |
